Experiments:
[1] = system: HSV-1; assay: Anti-HSV-1 replication assay in Vero cells, titers by plaque assay; type: cell-based, herpes simplex virus 1; conditions: Human alphaherpesvirus 1, Vero, 24 h
Method in brief: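 Vero monolayers infected with clinical HSV-1 or HSV-2 isolates at MOI 0.1 with compound present (50 and 5 μM final), 1 h at 37° C, then compound in DMEM for another 23 h. Yield titered by plaque assay on Vero cells; EC50 by nonlinear fit of serial dilutions starting at 50 μM, DMSO controls.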

[2] = system: TK-deficient mutant of HSV-2 strain 333, ΔTK-; assay: Replication of acyclovir-resistant TK-deficient HSV-2 mutant in Vero cells; type: cell-based, herpes simplex virus 2; conditions: 5 μM, 24 hr, FIG. 4
Method: FIGS. 4A & 4B. Sensitivity of thymidine kinase-deficient HSV-2 to αHT compounds. […] Duplicate cultures were collected 24 hours post-infection and infectious virus titers were determined by plaque assay. Titers in compound-treated samples were subtracted from DMSO-treated samples. Values are the averages±one standard error of the mean. α-Hydroxytropolones inhibit an ACV-resistant mutant of HSV-2. […] Log10 suppression was determined relative to the diluent control. Data are the averages of data from duplicate samples±ranges from one of two independent experiments at each concentration.
Vero cells were maintained in Dulbecco's modified Eagle's medium (DMEM) containing 3% newborn calf serum, 3% bovine growth serum, 2 mM L-glutamine and 100 IU/mL penicillin and 0.1 mg/mL streptomycin (P/S). HSV-1 #6 and HSV-2 #1 are de-identified clinical isolates from the Saint Louis University Hospital. Stocks were prepared after a single passage in cell culture and were titered by standard plaque assay (Knipe and Spang, 1982). Wild-type HSV-2 used in FIG. 3 was laboratory strain 333. The TK-deficient mutant of HSV-2 strain 333, ΔTK-, contains a 180-bp KpnI-KpnI deletion in the UL23 open reading frame that abrogates TK activity (McDermott, et al, 1984). ΔTK- was the generous gift of Jim Smiley. Virus stocks were grown and titered on Vero cells (Morrison and Knipe, 1996).
HSV TK-deficient mutants are therefore insensitive to ACV. […] Vero cells were infected with a laboratory strain of HSV-2 and an engineered TK-deficient mutant of the same strain.

Compound: Cc1cc(O)c(=O)c(O)cc1C(=O)c1ccc(-c2ccccc2)cc1 [Compound 118]
- EC50 ([1]; read-out: HSV-1 EC50): 85 nM
- log reduction at 5 µM ([1]; read-out: HSV-1 Log suppression 5 μM): 5.14
- log reduction at 50 µM ([1]; read-out: HSV-1 Log suppression 50 μM): 6.27
- inhibition of the TK-mutant strain, in words [2]: efficiently inhibited
